Patent US20060130162A1, “Shrimp and the production thereof” (priority 2002, published 2006)
Values joined by “and” are separate entries in the source; they are usually repeats but may differ in a detail not shown here. Equal values may be shown once.

Tested on: Juvenile shrimp
Assay: Carotenoid content of shrimp fed lutein-enriched Designer Diet (HPLC carotenoid analysis)
Format: in vivo
Parameters: AsX (astaxanthin) content of shrimp / Lutein content of shrimp / Other carotenoid content of shrimp / Total carotenoid content of shrimp / AsX (astaxanthin) content of shrimp, Mean / Lutein content of shrimp, Mean / Other carotenoid content of shrimp, Mean / Total carotenoid content of shrimp, Mean: unit not given here
Method: Juvenile shrimp (1-5 g) were cultured in 20 L tanks (5-10 shrimp per tank) at 23 degrees Celsius using standard shrimp diets (e.g., Rangen 35/2.5 shrimp diet). Test diets were prepared containing a 2:1 mixture of Rangen control feed with Lutein (Twin Labs) for a final lutein concentration in the diet of 8g/kg diet. Shrimp were fed at 0.3% body weight 2×/day for the duration of the experiment.
Following 14 days of feeding, the shrimp were collected, frozen to −20° C. and lyophilized prior to chemical analysis.

[1] = Mean of lutein group, lutein 8g/kg diet, 14 days of feeding
[2] = individual sample, lutein 8g/kg diet, 14 days of feeding

CC1=C[C@H](O)CC(C)(C)[C@H]1/C=C/C(C)=C/C=C/C(C)=C/C=C/C=C(C)/C=C/C=C(C)/C=C/C1=C(C)C[C@@H](O)CC1(C)C [Lutein]
A/L (astaxanthin / lutein), Mean [1]: 2.23.
A/T (astaxanthin / total carotenoids), Mean [1]: 53%
AsX (astaxanthin) content of shrimp, Mean [1]: 6.24
L + O/T (lutein + other / total carotenoids), Mean [1]: 47%
L/T (lutein / total carotenoids), Mean [1]: 33%
Lutein content of shrimp, Mean [1]: 4.64
Other carotenoid content of shrimp, Mean [1]: 1.62
Total carotenoid content of shrimp, Mean [1]: 12.49
Effect of lutein enrichment on shrimp appearance (FIG. 1) (before cooking and after cooking, compared with non-enriched shrimp): larger, more colorful
A/L (astaxanthin / lutein) [2]: 3.79 and 1.80 and 0.49 and 1.09 and 3.99
A/T (astaxanthin / total carotenoids) [2]: 68% and 54% and 30% and 45% and 70%
AsX (astaxanthin) content of shrimp [2]: 6.45 and 4.91 and 4.63 and 8.37 and 6.82
L + O/T (lutein + other / total carotenoids) [2]: 32% and 46% and 70% and 55% and 30%
L/T (lutein / total carotenoids) [2]: 18% (2×) and 30% and 61% and 41%
Lutein content of shrimp [2]: 1.70 and 2.73 and 9.39 and 7.65 and 1.71
Other carotenoid content of shrimp [2]: 1.38 and 1.40 and 1.47 and 2.70 and 1.15
Total carotenoid content of shrimp [2]: 9.53 and 9.04 and 15.49 and 18.72 and 9.68
